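Growth conditions: 96-well plates. Treatment: test compound, 48 hours, 5 concentrations. Analysis: linear interpolation between bracketing concentrations; unreached endpoints set to highest concentration. Abbreviation: GI50, concentration required for 50% inhibition of growth. Definition used: TGI = concentration required for complete inhibition of growth.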
Key:
Assay in all cases: NCI anticancer screen, dose series, 48 h
[1] = test system: DU-145 prostate
[2] = test system: HCC-2998 colon
[3] = test system: HS 578T breast
[4] = test system: MCF7 breast
[5] = test system: NCI/ADR-RES ovarian
[6] = test system: T-47D breast
[7] = test system: 786-0 renal
[8] = test system: DMS 114 small cell lung
[9] = test system: HOP-18 NSCLC
[10] = test system: KM20L2 colon
[11] = test system: LXFL 529 NSCLC
[12] = test system: M19-MEL melanoma
[13] = test system: RXF-631 renal
[14] = test system: SNB-78 CNS

Compound	GI50 [1]	TGI [1]	GI50 [2]	TGI [2]	GI50 [3]	TGI [3]	GI50 [4]	TGI [4]	GI50 [5]	TGI [5]	GI50 [6]	TGI [6]	TGI [7]	TGI [8]	TGI [9]	TGI [10]	TGI [11]	TGI [12]	TGI [13]	TGI [14]
COc1ccccc1C1C(C#N)=C(N)OC2=C1C(=O)CCC2 (configuration not stated)	> 100 µM	> 100 µM	> 100 µM	> 100 µM	> 100 µM	> 100 µM	> 100 µM	> 100 µM	> 100 µM	> 100 µM	> 100 µM	> 100 µM	–	–	–	–	–	–	–	–
CCCCc1ccc2[n+](c1)C(C(=O)OCC)=PC2 (configuration not stated)	–	> 100 µM	–	> 100 µM	–	> 100 µM	–	> 100 µM	–	–	–	–	> 100 µM	–	–	–	–	–	–	–
O=C1c2ccccc2-c2ccc(NC(=O)C3CCCCC3C(=O)O)cc21 (configuration not stated)	–	> 100 µM	–	–	–	> 100 µM	–	> 100 µM	–	> 100 µM	–	> 100 µM	> 100 µM	–	–	–	–	–	–	–
COc1ccc(C(=O)Cc2cc(OC)ccc2OC)cc1	–	–	–	> 100 µM	–	–	–	–	–	–	–	–	–	> 100 µM	> 100 µM	> 100 µM	> 100 µM	> 100 µM	> 100 µM	> 100 µM
Cc1cc(NS(=O)(=O)c2ccc(Nc3c4ccccc4nc4c(C(=O)NCCN(C)C)ccc(Cl)c34)cc2)no1	–	–	–	–	–	–	–	–	–	–	–	–	–	13.9 µM	–	24 µM	19.2 µM	16.9 µM	20.9 µM	44 µM
CC(C)=CCN(N=O)c1ncnc2nc[nH]c12	–	> 100 µM	–	> 100 µM	–	> 100 µM	–	> 100 µM	–	> 100 µM	–	> 100 µM	> 100 µM	–	–	–	–	–	–	–
CCOC(=O)C1C(c2cc(OC)c(O)c(OC)c2)c2cc3c(cc2OC1(C)O)OCO3 (configuration not stated)	–	–	–	–	–	–	–	–	–	–	–	–	–	–	> 100 µM	> 100 µM	–	> 100 µM	> 100 µM	> 100 µM
Cc1ccc2c(c1)c(=O)c1c(NCCN(C)C)ccc3nnn2c31	–	–	–	17 µM	–	–	–	–	–	–	–	–	15.9 µM	18.5 µM	50 µM	16 µM	20.1 µM	20.8 µM	–	24.2 µM

— PubChem BioAssay (NCI)
